Results published in PMC8204385 (Biophysical Journal, 2021).
Where “and” joins values, the source holds several entries; their conditions need not be identical. Equal values may be shown once.

Molecular target: T1, human SHP-1 (Homo sapiens, UniProt P29350)
T1 construct: 6xHis (N); made in house; host or cells: Escherichia coli BL21-CodonPlus (DE3)-RIPL
Experiment: SPR-based assay for tethered SHP-1 reactions on immobilised phosphopeptides, extended MPDPDE model fit
Format: binding

[1] = SPR, 37°C, MPDPDE fit, mean ± SE of N experiments

T1 sequence (P29350 whole entry): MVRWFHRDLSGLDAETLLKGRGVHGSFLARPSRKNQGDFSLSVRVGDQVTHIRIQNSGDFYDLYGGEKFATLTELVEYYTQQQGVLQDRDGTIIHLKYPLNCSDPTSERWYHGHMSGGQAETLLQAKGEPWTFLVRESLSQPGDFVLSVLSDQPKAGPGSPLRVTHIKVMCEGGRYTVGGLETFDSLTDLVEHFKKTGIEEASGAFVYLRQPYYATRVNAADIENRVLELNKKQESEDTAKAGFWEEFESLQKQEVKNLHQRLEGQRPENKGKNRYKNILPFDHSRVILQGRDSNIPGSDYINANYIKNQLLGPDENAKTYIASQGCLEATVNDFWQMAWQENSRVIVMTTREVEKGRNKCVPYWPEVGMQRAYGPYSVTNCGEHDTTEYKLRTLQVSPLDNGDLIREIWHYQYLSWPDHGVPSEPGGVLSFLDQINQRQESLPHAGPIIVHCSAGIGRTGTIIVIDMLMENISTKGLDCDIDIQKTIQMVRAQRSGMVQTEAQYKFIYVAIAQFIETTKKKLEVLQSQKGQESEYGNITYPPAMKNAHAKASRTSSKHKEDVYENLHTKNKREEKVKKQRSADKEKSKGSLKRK

## biotin-QLRRRGKTNHYQTTVEKK SLTIYAQVQKPGPLQKKLD SFPA QDPCTTIYVAATEPVPESVQET NSITVY^∗ASVTLPES [SLAM, N-terminally biotinylated singly phosphorylated peptide of the cytoplasmic tail of SLAM, 77 aa]
37°C, ((L^2 − LSHP-1^2)/2)^1/2 with LSHP-1 = 13.0 nm
  molecular reach contributed by the peptide tail (LPD-1 or LSLAM): 20.1 nm and 20 nm
SPR Biacore T200, 37°C, 10 μL/min, SHP-1 injected 45 s over biotinylated phosphopeptide on streptavidin CM5 chip, HEPES pH 7.4, MPDPDE fit, mean ± SE of N experiments
  kon: 20000 ± 10000 M⁻¹ s⁻¹
SPR, 37°C
  allosteric activation of SHP-1, ratio kcat(tethered)/kcat(solution): 6.2 fold
SPR, 37°C, KD = koff/kon, mean ± SE of N experiments
  Kd: 130 ± 40 µM
SPR, 37°C, L = (σ*)^−1/3 from averaged σ*, ± SE
  L, molecular reach of the reaction: 31.2 ± 1.2 nm
[1]
  kcat(solution): 5800 ± 1000 M⁻¹ s⁻¹
  kcat(tethered): 36000 ± 3000 M⁻¹ s⁻¹
  koff: 1.7 ± 0.2 s⁻¹
  σ* (local concentration): 55 ± 6 µM
